# Measurements reported in patent publication US20220162240A1, “MITOCHONDRIA-TARGETED ISOKETAL/ISOLEVUGLANDIN SCAVENGERS” (Vanderbilt University, priority 2019, published 2022).
# Entries after “also recorded” stand apart in the source; their conditions may differ.
# Tests used:
# [1] = tested on: human aortic endothelial cells (HAEC); test: Cardiolipin oxidation in HAEC incubated with Ang II plus TNFα (LC/MS); format: cell-based; conditions: 50 nM, Ang II + TNFα 24 hours
# Procedure: (§1) Free radical oxidation of arachidonic acid produces highly reactive isolevuglandins (isoLG) which causes mitochondrial dysfunction by opening of the mitochondrial permeability transition pore (mPTP). […] The functional role of mitochondrial isoLG was tested in vivo using angiotensin II model of hypertension. C57Bl/6J mice were infused with angiotensin II (0.7 mg/kg/day) or saline (Sham) and received mito2HOBA in the drinking water (0.1 g/L). […] Decrease of NO is a hallmark of endothelial dysfunction in hypertension due to vascular oxidative stress.
# (§2) Mitochondrial O2^• and cardiolipin oxidation (specific marker of mitochondrial dysfunction and oxidative stress) in cultured human aortic endothelial cells (HAEC) were incubated with Ang II and TNFα.
# [2] = tested on: hypertension; conditions: background statement; cited from earlier work
# [3] = tested on: human aortic endothelial cells (HAEC); test: Mitochondrial superoxide in HAEC incubated with Ang II plus TNFα (MitoSOX/HPLC); format: cell-based
# Procedure: as §1, §2
# [4] = tested on: mitochondrial superoxide; test: Aortic mitochondrial superoxide (MitoSOX/HPLC) in Ang II-infused mice treated with CypD blocker; format: in vivo; conditions: i.p. 10 mg/kg/day after onset of Ang II-induced hypertension
# Procedure: (§3) FIG. 3A-3D is a set of graphs showing examples of targeting CypD in hypertension. Blood pressure in C57Bl/6J mice infused with saline (Sham), Ang II (0.7 mg/kg/day) or treated with CypD blocker Sanglifehrin A (SFA) after onset of Ang II-induced hypertension (Ang II+SFA). Blood pressure was measured by tail-cuff method (A). ^3Following 14 days of saline or Ang II infusion, mice were sacrificed for isolation of aorta to study mitochondrial […] using MitoSOX and HPLC or to study vasodilation. Results are mean±SEM (n=6-8). *P<0.01 vs Sham, **P<0.01 vs Ang II, ***P<0.01 vs Ang II+SFA (n=8).
# (§4) One aspect of the present invention is targeting CypD after onset of hypertension. The present inventors implanted wild-type mice with osmotic pump containing Ang II (0.7 mg/kg/day) and started treatment with Sanglifehrin A after onset of Ang II-induced hypertension (FIG. 3A).
# [5] = tested on: Ang II-infused C57Bl/6J mice; test: Blood pressure (tail-cuff) in Ang II-induced hypertension, CypD blocker given after onset; format: in vivo; conditions: i.p. 10 mg/kg/day after onset of Ang II-induced hypertension
# Procedure: as §3, §4
# [6] = tested on: aorta; test: Vasodilatation of aorta from Ang II-infused mice treated with CypD blocker; format: in vivo; conditions: i.p. 10 mg/kg/day after onset of Ang II-induced hypertension
# Procedure: as §3, §4
# [7] = tested on: intact mouse kidney mitochondria; test: Swelling and respiration of isolated mouse kidney mitochondria after acute isoLG or isoLG-PE exposure; conditions: for mPTP opening / mitochondrial swelling / inhibition of mitochondrial respiration: 1 μM; for inhibition of mitochondrial respiration: acute treatment of isolated mitochondria, 5 min, glutamate and malate, ADP 50 μM
# Procedure: Intact mouse kidney mitochondria with glutamate and malate were incubated (5 min) with ethanol as vehicle, isoLG (1 μM) or isoLG-PE (1 μM) prior to addition of ADP (50 μM) and measurements of oxygen consumption. *P<0.001 vs Control, **P<0.03 vs isoLG.
# Reactive isoLG produce protein-Lysine adducts and cytotoxic isoLG-phosphatidylethanolamine adduct (isoLG-PE) which can independently contribute to mitochondrial dysfunction. Indeed, acute treatment of isolated mitochondria with isoLG-PE inhibited respiration by 41% while similar dose of isoLG reduced respiration by 74% which support potential role of both isoLG-PE and isoLG protein-Lysine adducts in mitochondrial dysfunction.
# [8] = acute exposure of isolated mitochondria
molecule,measurement,setting,value
"NCc1ccccc1O [2HOBA, 2-hydroxybenzylamine, reference compound]",cardiolipin oxidation,[1],not effective
same,endothelium-dependent relaxation in animal studies,[2],protects endothelium-dependent relaxation
same,hypertension in animal studies,[2],attenuates hypertension
same,inflammation in animal studies,[2],prevents inflammation
same,mitochondrial superoxide production / mitochondrial oxidative stress,"[3]; 50 nM, Ang II + TNFα 24 hours, MitoSOX/HPLC",not effective
same,concentration required for protection similar to mito2HOBA (50 nM) against mitochondrial oxidative stress,[3]; Ang II + TNFα,much higher concentrations
CC[C@H]1C[C@H](C)[C@@]2(NC1=O)O[C@@H](C[C@H](O)[C@@H](C)CC/C=C/C=C(\C)[C@@H]1C/C=C/C=C/[C@H](O)[C@H](C)[C@@H](O)[C@@H](CCC(C)=O)C(=O)N[C@@H](C(C)C)C(=O)N[C@@H](Cc3cccc(O)c3)C(=O)N3CCC[C@H](N3)C(=O)O1)[C@H](C)[C@H](O)[C@@H]2C [Sanglifehrin A],mitochondrial superoxide production in aorta,[4],normalizes
same,blood pressure,[5],reduces blood pressure
same,vasodilatation,[6],improves vasodilatation
isoLG-phosphatidylethanolamine adduct [isoLG-PE],mPTP opening / mitochondrial swelling,[7]; [8],mitochondrial swelling
same,inhibition of mitochondrial respiration,[7],41%
isolevuglandins [isoLG],mitochondrial respiration,[7]; [8],inhibits mitochondrial respiration
same,mPTP opening / mitochondrial swelling,[7]; [8],induces CypD-dependent mPTP opening; also recorded: mitochondrial swelling
same,inhibition of mitochondrial respiration,[7],74%
